Measured values from ChEMBL document CHEMBL5241054, “Effective anti-aromatase therapy to battle against estrogen-mediated breast cancer: Comparative SAR/QSAR assessment on steroidal aromatase inhibitors” (Eur J Med Chem, 2020).

Biological target: T1, Aromatase (Homo sapiens, UniProt P11511)
T1 sequence (P11511 whole entry): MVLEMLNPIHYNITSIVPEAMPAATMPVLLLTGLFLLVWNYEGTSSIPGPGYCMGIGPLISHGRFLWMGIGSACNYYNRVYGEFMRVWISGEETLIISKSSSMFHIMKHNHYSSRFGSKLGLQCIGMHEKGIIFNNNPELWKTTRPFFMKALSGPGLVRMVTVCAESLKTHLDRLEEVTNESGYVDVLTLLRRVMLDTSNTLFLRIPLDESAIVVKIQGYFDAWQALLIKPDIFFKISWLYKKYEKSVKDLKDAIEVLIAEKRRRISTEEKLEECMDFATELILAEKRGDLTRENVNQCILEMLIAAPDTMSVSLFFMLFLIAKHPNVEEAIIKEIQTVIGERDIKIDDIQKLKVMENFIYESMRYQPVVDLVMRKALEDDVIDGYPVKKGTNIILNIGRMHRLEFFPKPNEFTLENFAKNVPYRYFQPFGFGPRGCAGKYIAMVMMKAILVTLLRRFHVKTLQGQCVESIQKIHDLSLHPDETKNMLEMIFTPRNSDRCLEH

In order of rising IC50:
1. C[C@]12C=CC(=O)C=C1C[C@H](c1ccc(N)cc1)[C@@H]1[C@@H]2CC[C@]2(C)C(=O)CC[C@@H]12  0.00991 µM
2. C[C@]12C=CC(=O)C=C1[C@H](OCc1ccccc1)C[C@@H]1[C@@H]2CC[C@]2(C)C(=O)CC[C@@H]12  0.15 µM
3. CCCCCC(=O)O[C@H]1C[C@@H]2[C@H](CC[C@]3(C)C(=O)CC[C@@H]23)[C@@]2(C)C=CC(=O)C=C12  0.21 µM
4. CO[C@H]1C[C@@H]2[C@H](CC[C@]3(C)C(=O)CC[C@@H]23)[C@@]2(C)C=CC(=O)C=C12  0.44 µM
5. CCCCO[C@@H]1C[C@@H]2[C@H](CC[C@]3(C)C(=O)CC[C@@H]23)[C@@]2(C)C=CC(=O)C=C12  0.46 µM
6. C[C@]12C=CC(=O)C=C1[C@@H](Oc1ccccc1)C[C@@H]1[C@@H]2CC[C@]2(C)C(=O)CC[C@@H]12  0.53 µM
7. CCO[C@@H]1C[C@@H]2[C@H](CC[C@]3(C)C(=O)CC[C@@H]23)[C@@]2(C)C=CC(=O)C=C12  0.56 µM
8. CO[C@@H]1C[C@@H]2[C@H](CC[C@]3(C)C(=O)CC[C@@H]23)[C@@]2(C)C=CC(=O)C=C12  0.619 µM
9. CCCCO[C@H]1C[C@@H]2[C@H](CC[C@]3(C)C(=O)CC[C@@H]23)[C@@]2(C)C=CC(=O)C=C12  0.661 µM
10. COC1=C[C@@H]2[C@H](CC[C@]3(C)C(=O)CC[C@@H]23)[C@@]2(C)CCC(=O)C=C12  0.7 µM
11. CCOC1=C[C@@H]2[C@H](CC[C@]3(C)C(=O)CC[C@@H]23)[C@@]2(C)CCC(=O)C=C12  0.75 µM
12. COC1=C[C@@H]2[C@H](CC[C@]3(C)C(=O)CC[C@@H]23)[C@@]2(C)C=CC(=O)C=C12  0.8 µM
13. CCOC1=C[C@@H]2[C@H](CC[C@]3(C)C(=O)CC[C@@H]23)[C@@]2(C)C=CC(=O)C=C12  0.951 µM
14. CC(=O)O[C@H]1C[C@@H]2[C@H](CC[C@]3(C)C(=O)CC[C@@H]23)[C@@]2(C)C=CC(=O)C=C12  1.1 µM
15. C[C@]12CC[C@@H]3C4CCC(=O)C=C4CC[C@H]3[C@@H]1CCC2=O (stereo not given in full)  1.2 µM
16. CCO[C@H]1C[C@@H]2[C@H](CC[C@]3(C)C(=O)CC[C@@H]23)[C@@]2(C)C=CC(=O)C=C12  1.5 µM
17. CCCCCC(=O)O[C@@H]1C[C@@H]2[C@H](CC[C@]3(C)C(=O)CC[C@@H]23)[C@@]2(C)C=CC(=O)C=C12  1.8 µM
18. C[C@]12C=CC(=O)C=C1[C@@H](OCc1ccccc1)C[C@@H]1[C@@H]2CC[C@]2(C)C(=O)CC[C@@H]12  1.9 µM
19. COc1ccc([C@@H]2[C@H]3C[C@H]4[C@@H]5CCC6=CC(=O)C=C[C@]6(C)[C@H]5CC[C@]4(C)C3=NN2C)cc1  2.11 µM
20. C[C@]12C=CC(=O)C=C1C=C(c1ccccc1)[C@@H]1[C@@H]2CC[C@]2(C)C(=O)CC[C@@H]12  2.22 µM
21. C[C@]12CCCC[C@@H]1CC[C@@H]1[C@@H]2CC[C@]2(C)C(=O)CC[C@@H]12  2.3 µM
22. CN1N=C2[C@H](C[C@H]3[C@@H]4CCC5=CC(=O)C=C[C@]5(C)[C@H]4CC[C@]23C)[C@H]1c1ccccc1  2.45 µM
23. COc1ccc([C@@H]2[C@H]3C[C@H]4[C@@H]5CCC6=CC(=O)C=C[C@]6(C)[C@H]5CC[C@]4(C)C3=NN2C(C)=O)cc1  2.65 µM
24. CC(=O)N1N=C2[C@H](C[C@H]3[C@@H]4CCC5=CC(=O)C=C[C@]5(C)[C@H]4CC[C@]23C)[C@H]1c1ccccc1  2.88 µM
25. COc1ccc([C@H]2NN=C3[C@@H]2C[C@H]2[C@@H]4CCC5=CC(=O)C=C[C@]5(C)[C@H]4CC[C@]32C)cc1  2.91 µM
26. C[C@]12C=CC(=O)C=C1CC[C@@H]1[C@@H]2CC[C@]2(C)C3=NN[C@H](c4ccccc4)[C@H]3C[C@@H]12  3.01 µM
27. C[C@]12CCC(=O)C[C@@H]1C(=O)C[C@@H]1[C@@H]2CC[C@]2(C)C(=O)CC[C@@H]12  4 µM
28. COc1ccc([C@@H]2[C@H]3C[C@H]4[C@@H]5CC[C@H]6CC(=O)CC[C@]6(C)[C@H]5CC[C@]4(C)C3=NN2c2ccccc2)cc1  4.16 µM
29. C[C@]12CCC(=O)C[C@@H]1CC[C@@H]1[C@@H]2CC[C@]2(C)C3=NN(c4ccccc4)[C@H](c4ccccc4)[C@H]3C[C@@H]12  4.27 µM
30. COc1ccc([C@@H]2[C@H]3C[C@H]4[C@@H]5CC[C@H]6CC(=O)CC[C@]6(C)[C@H]5CC[C@]4(C)C3=NN2C)cc1  4.56 µM
31. CN1N=C2[C@H](C[C@H]3[C@@H]4CC[C@H]5CC(=O)CC[C@]5(C)[C@H]4CC[C@]23C)[C@H]1c1ccccc1  4.78 µM
32. COc1ccc([C@H]2NN=C3[C@@H]2C[C@H]2[C@@H]4CC[C@H]5CC(=O)CC[C@]5(C)[C@H]4CC[C@]32C)cc1  4.88 µM
33. COc1ccc([C@@H]2[C@H]3C[C@H]4[C@@H]5CC[C@H]6CC(=O)CC[C@]6(C)[C@H]5CC[C@]4(C)C3=NN2C(C)=O)cc1  4.89 µM
34. CC(=O)N1N=C2[C@H](C[C@H]3[C@@H]4CC[C@H]5CC(=O)CC[C@]5(C)[C@H]4CC[C@]23C)[C@H]1c1ccccc1  4.91 µM
35. CC(=O)O[C@@H]1C[C@@H]2[C@H](CC[C@]3(C)C(=O)CC[C@@H]23)[C@@]2(C)C=CC(=O)C=C12  5 µM
36. C[C@]12CCC(=O)C[C@@H]1CC[C@@H]1[C@@H]2CC[C@]2(C)C3=NN[C@H](c4ccccc4)[C@H]3C[C@@H]12  5.24 µM
37. COc1ccc([C@@H]2[C@H]3C[C@H]4[C@@H]5CC[C@H]6C[C@@H](OC(=O)C(F)(F)F)CC[C@]6(C)[C@H]5CC[C@]4(C)C3=NN2c2ccccc2)cc1  5.45 µM
38. C[C@]12CC[C@H](OC(=O)C(F)(F)F)C[C@@H]1CC[C@@H]1[C@@H]2CC[C@]2(C)C3=NN(c4ccccc4)[C@H](c4ccccc4)[C@H]3C[C@@H]12  5.68 µM
39. COc1ccc([C@@H]2[C@H]3C[C@H]4[C@@H]5CC[C@H]6C[C@@H](OC(=O)C(F)(F)F)CC[C@]6(C)[C@H]5CC[C@]4(C)C3=NN2C)cc1  5.78 µM
40. CN1N=C2[C@H](C[C@H]3[C@@H]4CC[C@H]5C[C@@H](OC(=O)C(F)(F)F)CC[C@]5(C)[C@H]4CC[C@]23C)[C@H]1c1ccccc1  5.81 µM
41. COc1ccc([C@@H]2[C@H]3C[C@H]4[C@@H]5CC[C@H]6C[C@@H](O)CC[C@]6(C)[C@H]5CC[C@]4(C)C3=NN2c2ccccc2)cc1  5.92 µM
42. C[C@]12CC[C@H](O)C[C@@H]1CC[C@@H]1[C@@H]2CC[C@]2(C)C3=NN(c4ccccc4)[C@H](c4ccccc4)[C@H]3C[C@@H]12  6.01 µM
43. COc1ccc([C@@H]2[C@H]3C[C@H]4[C@@H]5CC[C@H]6C[C@@H](O)CC[C@]6(C)[C@H]5CC[C@]4(C)C3=NN2C)cc1  6.12 µM
44. CN1N=C2[C@H](C[C@H]3[C@@H]4CC[C@H]5C[C@@H](O)CC[C@]5(C)[C@H]4CC[C@]23C)[C@H]1c1ccccc1  6.34 µM
45. COc1ccc([C@@H]2[C@H]3C[C@H]4[C@@H]5CC[C@H]6C[C@@H](OC(=O)C(F)(F)F)CC[C@]6(C)[C@H]5CC[C@]4(C)C3=NN2C(C)=O)cc1  6.46 µM
46. CC(=O)N1N=C2[C@H](C[C@H]3[C@@H]4CC[C@H]5C[C@@H](OC(=O)C(F)(F)F)CC[C@]5(C)[C@H]4CC[C@]23C)[C@H]1c1ccccc1  6.58 µM
47. CCC(=O)N1N=C2[C@H](C[C@H]3[C@@H]4CC[C@H]5C[C@@H](OC(=O)C(F)(F)F)CC[C@]5(C)[C@H]4CC[C@]23C)[C@H]1c1ccc(OC)cc1  6.61 µM
48. CCC(=O)N1N=C2[C@H](C[C@H]3[C@@H]4CC[C@H]5C[C@@H](OC(=O)C(F)(F)F)CC[C@]5(C)[C@H]4CC[C@]23C)[C@H]1c1ccccc1  6.71 µM
49. COc1ccc([C@H]2NN=C3[C@@H]2C[C@H]2[C@@H]4CC[C@H]5C[C@@H](O)CC[C@]5(C)[C@H]4CC[C@]32C)cc1  6.82 µM
50. C[C@]12CC[C@H](O)C[C@@H]1CC[C@@H]1[C@@H]2CC[C@]2(C)C3=NN[C@H](c4ccccc4)[C@H]3C[C@@H]12  6.9 µM
51. COc1ccc(/C=C2/C[C@H]3[C@@H]4CC[C@H]5C[C@@H](OC(=O)C(F)(F)F)CC[C@]5(C)[C@H]4CC[C@]3(C)C2=O)cc1  7 µM
52. C[C@]12CC[C@H](OC(=O)C(F)(F)F)C[C@@H]1CC[C@@H]1[C@@H]2CC[C@]2(C)C(=O)/C(=C\c3ccccc3)C[C@@H]12  7.11 µM
53. COc1ccc(/C=C2/C[C@H]3[C@@H]4CC[C@H]5C[C@@H](O)CC[C@]5(C)[C@H]4CC[C@]3(C)C2=O)cc1  7.13 µM
54. C[C@]12CC[C@@H]3C4CCC(=O)C=C4C(=O)C[C@H]3[C@@H]1CCC2=O (stereo not given in full)  12 µM
55. C[C@]12C=CC(=O)C=C1[C@H](Oc1ccccc1)C[C@@H]1[C@@H]2CC[C@]2(C)C(=O)CC[C@@H]12  16 µM
